Patent US9187471B2, “Pyrido [4,3-b] indole and pyrido [3,4-b] indole derivatives and methods of use” (Medivation Technologies, Inc., priority 2010, dated 2015)

What was measured:
[1] = target: T1, human recombinant histamine H1 receptor (Homo sapiens, UniProt P35367); test: Histamine H1 radioligand binding ([3H]Pyrilamine); details: read-out: Histamine H1 Binding (1 μM), percent inhibition of specific binding; compound at 1 μM; 1.2 nM [3H]Pyrilamine
T1 construct: expressed in transfected cells; host or cells: CHO-K1
Procedure, shortened: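 Results expressed as percent inhibition of specific [3H]pyrilamine binding, counted on filters after washing. Receptor source: CHO-K1 cells expressing recombinant human H1, in modified Tris-HCl buffer (50 mM, pH 7.4; 2 mM MgCl2, 100 mM NaCl, 250 mM sucrose). 1 μM pyrilamine defined non-specific binding.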

[2] = target: T2, human recombinant adrenergic α2C receptor (Homo sapiens, UniProt P18825); test: Adrenergic α2C radioligand binding ([3H]MK-912); details: read-out: Adrenergic (0.1 μM) a2C, percent inhibition of specific binding; compound at 0.1 μM; 1 nM [3H]MK-912
T2 construct: expressed in transfected cells; host or cells: insect Sf9 cells
T2 sequence (P18825 1-462): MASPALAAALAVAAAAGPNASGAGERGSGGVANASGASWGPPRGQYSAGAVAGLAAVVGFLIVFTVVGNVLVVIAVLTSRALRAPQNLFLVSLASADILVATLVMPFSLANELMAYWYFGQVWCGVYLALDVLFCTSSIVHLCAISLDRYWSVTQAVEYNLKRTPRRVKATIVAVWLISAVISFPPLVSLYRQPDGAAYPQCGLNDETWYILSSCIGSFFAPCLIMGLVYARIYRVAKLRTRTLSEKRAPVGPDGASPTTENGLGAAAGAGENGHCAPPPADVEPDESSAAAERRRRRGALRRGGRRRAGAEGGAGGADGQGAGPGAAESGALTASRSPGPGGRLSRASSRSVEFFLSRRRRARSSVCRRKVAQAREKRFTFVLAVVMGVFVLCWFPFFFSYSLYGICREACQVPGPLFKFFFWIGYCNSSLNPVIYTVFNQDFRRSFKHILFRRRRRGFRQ
Procedure, shortened: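 Membranes from Sf9 cells expressing the human receptor, in 50 mM Tris-HCl pH 7.4 with 12.5 mM MgCl2 and 2 mM EDTA, incubated with compound and 1 nM [3H]MK-912 for 60 min at 25 °C. Non-specific binding defined with 10 μM WB-4101. Filter-bound radioactivity counted; percent inhibition of specific binding reported.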

[3] = target: T3, human recombinant dopamine D2L receptor (Homo sapiens, UniProt P14416); test: Dopamine D2L radioligand binding ([3H]Spiperone); details: 0.16 nM [3H]Spiperone; for inhibition at 1 µM: read-out: Dopamine D2L (1 μM), percent inhibition of specific binding, compound at 1 μM
T3 construct: expressed in transfected cells; host or cells: CHO
Experimental: Non-specific binding was estimated in the presence of 10 μM Haloperidol. Receptor proteins were filtered and washed, the filters were then counted to determine [^3H]Spiperone specifically bound.

[4] = target: T4, human recombinant serotonin (5-Hydroxytryptamine) 5-HT2A receptor (Homo sapiens, UniProt P28223); test: Serotonin 5-HT2A radioligand binding ([3H]Ketanserin); details: compound at 0.1 μM; read-out: Inhibition of ligand binding, Serotonin 5-HT2A (percent inhibition of specific binding)
T4 construct: expressed in transfected cells; host or cells: CHO-K1
Experimental: Compounds of the invention were incubated with 0.5 nM [^3H]Ketanserin for 60 min at 25° C. Non-specific binding was estimated in the presence of 1 μM Mianserin. Receptor proteins were filtered and washed, the filters were then counted to determine [^3H]Ketanserin specifically bound.

[5] = target: T5, human recombinant serotonin (5-Hydroxytryptamine) 5-HT2C receptor (Homo sapiens, UniProt P28335); test: Serotonin 5-HT2C radioligand binding ([3H]Mesulergine); details: compound at 0.1 μM; read-out: Inhibition of ligand binding, Serotonin 5-HT2C (percent inhibition of specific binding)
T5 construct: expressed in transfected cells; host or cells: CHO-K1
T5 sequence (P28335 33-458): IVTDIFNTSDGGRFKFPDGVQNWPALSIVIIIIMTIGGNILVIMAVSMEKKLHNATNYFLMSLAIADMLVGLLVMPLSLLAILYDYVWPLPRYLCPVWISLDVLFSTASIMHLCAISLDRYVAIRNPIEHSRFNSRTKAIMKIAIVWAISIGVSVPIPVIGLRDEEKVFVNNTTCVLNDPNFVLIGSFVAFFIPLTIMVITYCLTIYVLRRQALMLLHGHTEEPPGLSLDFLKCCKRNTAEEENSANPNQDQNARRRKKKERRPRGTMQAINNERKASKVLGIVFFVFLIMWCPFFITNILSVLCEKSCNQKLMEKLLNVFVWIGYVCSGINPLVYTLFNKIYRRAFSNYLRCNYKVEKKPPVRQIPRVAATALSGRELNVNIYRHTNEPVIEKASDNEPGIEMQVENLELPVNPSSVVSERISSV
Experimental: Compounds of the invention were incubated with 1 nM [^3H]Mesulergine for 60 min at 25° C. Non-specific binding was estimated in the presence of 1 μM Mianserin. Receptor proteins were filtered and washed, the filters were then counted to determine [^3H]Mesulergine specifically bound.

[6] = target: T6, human recombinant serotonin (5-Hydroxytryptamine) 5-HT5A receptor (Homo sapiens, UniProt P47898); test: Serotonin 5-HT5A radioligand binding ([3H]LSD); details: compound at 0.1 μM; read-out: Inhibition of ligand binding, Serotonin 5-HT5A (percent inhibition of specific binding)
T6 construct: expressed in transfected cells; host or cells: CHO-K1
Experimental: Compounds of the invention were incubated with 1.7 nM [^3H]Lysergic acid diethylamide (LSD) for 60 min at 37° C. […] Receptor proteins were filtered and washed, the filters were counted to determine [^3H]LSD specifically bound.

[7] = target: T7, human recombinant serotonin (5-Hydroxytryptamine) 5-HT6 receptor (Homo sapiens, UniProt P50406); test: Serotonin 5-HT6 radioligand binding ([3H]LSD); details: compound at 0.1 μM; read-out: Inhibition of ligand binding, Serotonin 5-HT6 (percent inhibition of specific binding)
T7 construct: expressed in transfected cells; host or cells: HeLa
Excerpt: Receptor proteins were filtered and washed, the filters were then counted to determine [3H]LSD specifically bound.

[8] = target: T8, human recombinant serotonin (5-Hydroxytryptamine) 5-HT7 receptor (Homo sapiens, UniProt P34969); test: Serotonin 5-HT7 radioligand binding ([3H]LSD); details: compound at 0.1 μM; read-out: Inhibition of ligand binding, Serotonin 5-HT7 (percent inhibition of specific binding)
T8 construct: expressed in transfected cells; host or cells: CHO
Experimental: Lysergic acid diethylamide (LSD) for 120 min. at 25° C. […] Receptor proteins were filtered and washed, the filters were then counted to determine [^3H]LSD specifically bound.

T8 sequence (P34969 whole entry): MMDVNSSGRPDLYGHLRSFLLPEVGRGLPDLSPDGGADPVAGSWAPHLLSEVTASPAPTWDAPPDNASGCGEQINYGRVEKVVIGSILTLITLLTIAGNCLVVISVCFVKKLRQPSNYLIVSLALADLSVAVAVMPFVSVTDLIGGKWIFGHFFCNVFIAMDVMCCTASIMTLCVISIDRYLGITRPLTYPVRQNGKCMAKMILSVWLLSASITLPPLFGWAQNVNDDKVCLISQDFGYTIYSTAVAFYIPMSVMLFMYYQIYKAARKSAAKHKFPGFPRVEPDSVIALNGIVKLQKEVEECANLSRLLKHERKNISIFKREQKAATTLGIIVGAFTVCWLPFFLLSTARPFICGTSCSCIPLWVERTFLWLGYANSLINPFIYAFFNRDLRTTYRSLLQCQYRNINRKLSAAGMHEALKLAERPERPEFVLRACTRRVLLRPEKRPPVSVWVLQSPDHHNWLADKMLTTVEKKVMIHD
T7 sequence (P50406 whole entry): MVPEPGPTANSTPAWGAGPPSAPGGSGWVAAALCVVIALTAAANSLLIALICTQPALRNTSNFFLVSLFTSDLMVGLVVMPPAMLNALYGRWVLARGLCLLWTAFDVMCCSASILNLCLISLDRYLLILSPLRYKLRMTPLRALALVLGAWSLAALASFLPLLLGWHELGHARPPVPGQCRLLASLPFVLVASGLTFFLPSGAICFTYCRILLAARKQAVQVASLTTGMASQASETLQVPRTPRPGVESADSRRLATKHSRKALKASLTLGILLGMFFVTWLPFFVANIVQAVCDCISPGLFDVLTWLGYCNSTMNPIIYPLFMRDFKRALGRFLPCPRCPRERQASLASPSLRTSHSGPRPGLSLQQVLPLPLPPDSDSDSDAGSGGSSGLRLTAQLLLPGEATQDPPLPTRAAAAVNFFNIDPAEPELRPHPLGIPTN
T6 sequence (P47898 whole entry): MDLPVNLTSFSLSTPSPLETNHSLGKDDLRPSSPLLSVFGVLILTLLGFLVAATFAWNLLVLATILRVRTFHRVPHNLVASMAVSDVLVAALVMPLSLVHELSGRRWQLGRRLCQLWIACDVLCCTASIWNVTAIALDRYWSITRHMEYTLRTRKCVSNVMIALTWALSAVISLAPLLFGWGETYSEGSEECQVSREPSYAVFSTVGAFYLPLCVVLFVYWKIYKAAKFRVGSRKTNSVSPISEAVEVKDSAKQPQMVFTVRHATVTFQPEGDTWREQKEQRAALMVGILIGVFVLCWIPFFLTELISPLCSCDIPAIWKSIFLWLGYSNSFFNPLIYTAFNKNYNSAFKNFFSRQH
T1 sequence (P35367 whole entry): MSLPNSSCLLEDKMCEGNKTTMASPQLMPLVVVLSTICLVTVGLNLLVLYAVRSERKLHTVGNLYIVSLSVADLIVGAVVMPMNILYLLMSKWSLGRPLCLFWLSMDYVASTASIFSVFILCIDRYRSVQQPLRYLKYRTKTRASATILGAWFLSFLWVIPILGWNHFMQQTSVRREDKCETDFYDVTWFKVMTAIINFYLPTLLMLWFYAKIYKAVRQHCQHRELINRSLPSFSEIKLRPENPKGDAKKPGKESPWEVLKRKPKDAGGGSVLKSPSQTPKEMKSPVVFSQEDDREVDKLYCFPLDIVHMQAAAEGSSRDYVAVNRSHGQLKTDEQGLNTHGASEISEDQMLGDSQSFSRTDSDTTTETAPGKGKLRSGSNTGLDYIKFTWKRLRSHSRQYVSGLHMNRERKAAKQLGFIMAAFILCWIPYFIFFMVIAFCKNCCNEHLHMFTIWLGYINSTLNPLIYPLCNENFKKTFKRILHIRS
T4 sequence (P28223 whole entry): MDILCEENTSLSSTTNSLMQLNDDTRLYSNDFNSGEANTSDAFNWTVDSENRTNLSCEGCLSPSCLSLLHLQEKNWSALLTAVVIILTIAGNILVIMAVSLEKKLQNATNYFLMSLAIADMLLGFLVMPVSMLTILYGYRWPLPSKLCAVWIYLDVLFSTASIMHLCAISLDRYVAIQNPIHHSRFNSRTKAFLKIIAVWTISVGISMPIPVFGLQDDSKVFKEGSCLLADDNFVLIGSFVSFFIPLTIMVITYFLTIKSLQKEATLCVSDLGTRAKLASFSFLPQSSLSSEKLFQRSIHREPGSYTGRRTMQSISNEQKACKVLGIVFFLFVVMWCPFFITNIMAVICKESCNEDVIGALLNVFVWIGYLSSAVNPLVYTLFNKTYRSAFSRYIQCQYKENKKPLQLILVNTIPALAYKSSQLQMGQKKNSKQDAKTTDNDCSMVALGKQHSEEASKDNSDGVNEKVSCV
T3 sequence (P14416 whole entry): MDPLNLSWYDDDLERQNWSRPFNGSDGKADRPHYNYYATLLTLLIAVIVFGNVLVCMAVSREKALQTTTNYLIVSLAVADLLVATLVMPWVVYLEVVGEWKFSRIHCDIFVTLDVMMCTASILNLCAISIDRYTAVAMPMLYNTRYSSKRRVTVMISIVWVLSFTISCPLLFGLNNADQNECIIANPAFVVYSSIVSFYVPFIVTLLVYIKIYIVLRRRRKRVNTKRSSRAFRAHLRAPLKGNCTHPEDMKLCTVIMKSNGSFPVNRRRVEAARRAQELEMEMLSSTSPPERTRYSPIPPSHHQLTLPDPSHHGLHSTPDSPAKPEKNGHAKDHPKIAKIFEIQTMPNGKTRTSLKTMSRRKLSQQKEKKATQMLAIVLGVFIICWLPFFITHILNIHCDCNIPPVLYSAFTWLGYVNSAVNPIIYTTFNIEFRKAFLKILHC

| SMILES | inhibition at 1 µM [1] | inhibition at 0.1 µM [2] | inhibition at 1 µM [3] | inhibition at 0.1 µM [4] | inhibition at 0.1 µM [5] | inhibition at 0.1 µM [6] | inhibition at 0.1 µM [7] | inhibition at 0.1 µM [8] | inhibition at 0.1 µM ([3]; read-out: Dopamine D2L (0.1 μM), percent inhibition of specific binding, compound at 0.1 μM) |
| --- | --- | --- | --- | --- | --- | --- | --- | --- | --- |
| Cc1csc(-c2cscc2-n2c3c(c4cc(C)ccc42)CN(C)CC3)c1 [Compound 50] | 54% | 90% | 36% | 86% | 92% | 81% | 36% | 97% | – |
| Cc1ccc2c(c1)c1c(n2-c2ccccc2-c2c(C)noc2C)CCN(C)C1 [Compound No. 82, 4-(2-(2,8-dimethyl-3,4-dihydro-1H-pyrido[4,3-b]indol-5(2H)-yl)phenyl)-3,5-dimethylisoxazole] | 18% | 7% | 9% | 73% | 68% | 9% | 14% | 24% | – |
| Cc1ccc2c(c1)c1c(n2-c2cccc(-c3cn[nH]c3)c2)CCN(C)C1 [Compound No. 70, 5-(3-(1H-pyrazol-4-yl)phenyl)-2,8-dimethyl-2,3,4,5-tetrahydro-1H-pyrido[4,3-b]indole] | 8% | 8% | 15% | 98% | 81% | 43% | 0% | 50% | – |
| CC(=O)Nc1ccc(-c2ccc(-n3c4c(c5cc(C)ccc53)CN(C)CC4)nc2)cn1 [Compound No. 139, N-(6′-(2,8-dimethyl-3,4-dihydro-1H-pyrido[4,3-b]indol-5(2H)-yl)-3,3′-bipyridin-6-yl)acetamide] | 4% | 2% | 16% | 64% | 65% | -4% | -1% | 13% | – |
| Cc1ccc2c(c1)c1c(n2-c2ccc(-c3ccnn3C)cn2)CCN(C)C1 [Compound No. 146, 2,8-dimethyl-5-(5-(1-methyl-1H-pyrazol-5-yl)pyridin-2-yl)-2,3,4,5-tetrahydro-1H-pyrido[4,3-b]indole] | 8% | -1% | 5% | 57% | 30% | 10% | -17% | 16% | – |
| CNC(=O)c1cc(-n2c3c(c4cc(C)ccc42)CN(C)CC3)cs1 [Compound No. 78] | 13% | 3% | 1% | 59% | 35% | 24% | 17% | 22% | – |
| Cc1ccc2c(c1)c1c(n2-c2cscc2-c2ccc(F)nc2)CCN(C)C1 [Compound 35] | 3% | 47% | 17% | 82% | 74% | 66% | 21% | 93% | – |
| Cc1cc(C)c2c(c1)c1c(n2-c2cccc3ncccc23)CCN(C)C1 [Compound 47] | 42% | 11% | 19% | 1% | 32% | 29% | 18% | 36% | – |
| Cc1ccc2c(c1)c1c(n2-c2cscc2-c2ccc(O)nc2)CCN(C)C1 [Compound 49] | 7% | -10% | 1% | 18% | 19% | 52% | 6% | 86% | – |
| Cc1ccc2c(c1)c1c(n2-c2cscc2-c2cncc3ccccc23)CCN(C)C1 [Compound 34] | 6% | 5% | 31% | 57% | 54% | 56% | 11% | 43% | – |
| Cc1ccc2c(c1)c1c(n2-c2ccccc2-c2ccc(C)nc2)CCN(C)C1 [Compound 59, 2,8-dimethyl-5-(2-(6-methylpyridin-3-yl)phenyl)-2,3,4,5-tetrahydro-1H-pyrido[4,3-b]indole] | 27% | 25% | 13% | 47% | 46% | 31% | 17% | 48% | – |
| Cc1ccc2c(c1)c1c(n2-c2cscc2-c2ccnn2C)CCN(C)C1 [Compound No. 150] | 22% | 10% | – | 53% | 64% | 65% | 14% | 88% | 5% |
| Cc1ccc2c(c1)c1c(n2-c2cccc(-c3ccc(F)cc3)c2)CCN(C)C1 [Compound 61, 5-(4′-fluorobiphenyl-3-yl)-2,8-dimethyl-2,3,4,5-tetrahydro-1H-pyrido[4,3-b]indole] | 42% | 8% | 36% | 102% | 81% | 24% | 18% | 48% | – |
| Cc1csc(-c2ccc(-n3c4c(c5cc(C)ccc53)CN(C)CC4)nc2)c1 [Compound No. 144, 2,8-dimethyl-5-(5-(4-methylthiophen-2-yl)pyridin-2-yl)-2,3,4,5-tetrahydro-1H-pyrido[4,3-b]indole] | 11% | 49% | 5% | 103% | 100% | 38% | 13% | 37% | – |
